Reference: patent US9670210B2, “Cyclopropylamines as LSD1 inhibitors” (Incyte Corporation, priority 2014, dated 2017)

What follows are compounds tested against LSD-1 enzyme (Homo sapiens (Human), UniProt O60341).
Procedure: LSD1 Histone Demethylase Biochemical Assay
LANCE LSD1/KDM1A demethylase assay-10 μL of 1 nM LSD-1 enzyme (ENZO BML-SE544-0050) in the assay buffer (50 mM Tris, pH 7.5, 0.01% Tween-20, 25 mM NaCl, 5 mM DTT) were preincubated for 1 hour at 25° C. with 0.8 μL compound/DMSO dotted in black 384 well polystyrene plates. […] After stopping the reactions plates were incubated for 30 minutes and read on a PHERAstar FS plate reader (BMG Labtech).
COCC1(CN[C@@H]2C[C@H]2c2ccccc2)CCN(C(=O)c2ccc(N)nn2)CC1 [Example 40, 6-{[4-(methoxymethyl)-4-({[(1R,2S)-2-phenylcyclopropyl]amino}methyl)piperidin-1-yl]carbonyl}pyridazin-3-amine] gave an IC50 of less than 100 nM.
Compound COCC1(CN[C@@H]2C[C@H]2c2ccccc2)CCN(C(=O)C2CCN(C)CC2)CC1 [Example 41, (1R,2S)—N-({4-(methoxymethyl)-1-[(1-methylpiperidin-4-yl)carbonyl]piperidin-4-yl}methyl)-2-phenylcyclopropanamine] has an IC50 of less than 100 nM.
In the case of COCC1(CN[C@@H]2C[C@H]2c2ccccc2)CCN(C(=O)c2ccn(C)n2)CC1 [Example 42, (1R,2S)—N-({4-(methoxymethyl)-1-[(1-methyl-1H-pyrazol-3-yl)carbonyl]piperidin-4-yl}methyl)-2-phenylcyclopropanamine], the IC50 is reported as less than 100 nM.
For COCC1(CN[C@@H]2C[C@H]2c2ccccc2)CCN(C(=O)N2CCN(C)CC2)CC1 [Example 43, (1R,2S)—N-({4-(methoxymethyl)-1-[(4-methylpiperazin-1-yl)carbonyl]piperidin-4-yl}methyl)-2-phenylcyclopropanamine], the IC50 was less than 100 nM.
Work on CC1(CN[C@@H]2C[C@H]2c2ccccc2)CCN(CC2(C(=O)O)CC2)CC1 [Example 44, 1-{[4-methyl-4-({[(1R,2S)-2-phenylcyclopropyl]amino}methyl)piperidin-1-yl]methyl}cyclopropanecarboxylic acid] yielded an IC50 of less than 100 nM.
Work on CC1(CN[C@@H]2C[C@H]2c2ccccc2)CCN(CC2(C(=O)O)CCC2)CC1 [Example 45, 1-{[4-methyl-4-({[(1R,2S)-2-phenylcyclopropyl]amino}methyl)piperidin-1-yl]methyl}cyclobutanecarboxylic acid] yielded an IC50 of less than 100 nM.
Compound Cn1ccc(C(=O)N2CCC(C)(CN[C@@H]3C[C@H]3c3ccccc3)CC2)n1 [Example 46, (1R,2S)—N-({4-methyl-1-[(1-methyl-1H-pyrazol-3-yl)carbonyl]piperidin-4-yl}methyl)-2-phenylcyclopropanamine] has an IC50 of less than 100 nM.
In the case of Cn1cnc(C(=O)N2CCC(C)(CN[C@@H]3C[C@H]3c3ccccc3)CC2)c1 [Example 47, (1R,2S)—N-({4-methyl-1-[(1-methyl-1H-imidazol-4-yl)carbonyl]piperidin-4-yl}methyl)-2-phenylcyclopropanamine], the IC50 is reported as less than 100 nM.
Work on CC1(CN[C@@H]2C[C@H]2c2ccccc2)CCN(C(=O)c2cnc(N)nc2)CC1 [Example 48, 5-{[4-methyl-4-({[(1R,2S)-2-phenylcyclopropyl]amino}methyl)piperidin-1-yl]carbonyl}pyrimidin-2-amine] yielded an IC50 of less than 100 nM.
Compound CC1(CN[C@@H]2C[C@H]2c2ccccc2)CCN(C(=O)c2ccc(N)nn2)CC1 [Example 49, 6-{[4-methyl-4-({[(1R,2S)-2-phenylcyclopropyl]amino}methyl)piperidin-1-yl]carbonyl}pyridazin-3-amine] has an IC50 of less than 100 nM.
Work on CC1(CN[C@@H]2C[C@H]2c2ccccc2)CCN(C(=O)c2c[nH]nc2N)CC1 [Example 50, 4-{[4-methyl-4-({[(1R,2S)-2-phenylcyclopropyl]amino}methyl)piperidin-1-yl]carbonyl}-1H-pyrazol-3-amine] yielded an IC50 of less than 100 nM.
CC1(CN[C@@H]2C[C@H]2c2ccccc2)CCN(C(=O)C2(N)CCCC2)CC1 [Example 51, 1-{[4-methyl-4-({[(1R,2S)-2-phenylcyclopropyl]amino}methyl)piperidin-1-yl]carbonyl}cyclopentanamine] was tested, and the IC50 was less than 100 nM.
With CC1(CN[C@@H]2C[C@H]2c2ccccc2)CCN(Cc2cnc(N)nc2)CC1 [Example 52, 5-{[4-methyl-4-({[(1R,2S)-2-phenylcyclopropyl]amino}methyl)piperidin-1-yl]methyl}pyrimidin-2-amine] the IC50 was less than 100 nM.
In the case of N#CCc1ccc(CC2(CN[C@@H]3C[C@H]3c3ccccc3)CCN(CC3(C(=O)O)CC3)CC2)cc1 [Example 53, 1-{[4-[4-(cyanomethyl)benzyl]-4-({[(1R,2S)-2-phenylcyclopropyl]amino}methyl)piperidin-1-yl]methyl}cyclopropanecarboxylic acid], the IC50 is reported as less than 100 nM.
N#CCc1ccc(CC2(CN[C@@H]3C[C@H]3c3ccccc3)CCN(CC3(C(=O)O)CCC3)CC2)cc1 [Example 54, 1-{[4-[4-(cyanomethyl)benzyl]-4-({[(1R,2S)-2-phenylcyclopropyl]amino}methyl)piperidin-1-yl]methyl}cyclobutanecarboxylic acid] was tested, and the IC50 was less than 100 nM.
N#Cc1ccc(CC2(CN[C@@H]3C[C@H]3c3ccccc3)CCN(CC3(C(=O)O)CC3)CC2)cc1 [Example 55, 1-{[4-(4-cyanobenzyl)-4-({[(1R,2S)-2-phenylcyclopropyl]amino}methyl)piperidin-1-yl]methyl}cyclopropanecarboxylic acid] showed an IC50 of less than 100 nM.
Work on N#Cc1cccc(CC2(CN[C@@H]3C[C@H]3c3ccccc3)CCN(CC3(C(=O)O)CC3)CC2)c1 [Example 56, 1-{[4-(3-cyanobenzyl)-4-({[(1R,2S)-2-phenylcyclopropyl]amino}methyl)piperidin-1-yl]methyl}cyclopropanecarboxylic acid] yielded an IC50 of less than 100 nM.
N#Cc1cccc(CC2(CN[C@@H]3C[C@H]3c3ccccc3)CCN(CC3(C(=O)O)CCC3)CC2)c1 [Example 57, 1-{[4-(3-cyanobenzyl)-4-({[(1R,2S)-2-phenylcyclopropyl]amino}methyl)piperidin-1-yl]methyl}cyclobutanecarboxylic acid] showed an IC50 of less than 100 nM.
N#Cc1cccc(CC2(CN[C@@H]3C[C@H]3c3ccccc3)CCN(C[C@H]3CC[C@H](C(=O)O)CC3)CC2)c1 [Example 58, trans-4-{[4-(3-cyanobenzyl)-4-({[(1R,2S)-2-phenylcyclopropyl]amino}methyl)piperidin-1-yl]methyl}cyclohexanecarboxylic acid] was tested, and the IC50 was less than 100 nM.
COc1cccc(CN2CCC(CN[C@@H]3C[C@H]3c3ccccc3)(Cc3cccc(C(=O)O)c3)CC2)c1 [Example 59, 3-{[1-(3-methoxybenzyl)-4-({[(1R,2S)-2-phenylcyclopropyl]amino}methyl)piperidin-4-yl]methyl}benzoic acid] showed an IC50 of less than 100 nM.
Compound COCC1(CN[C@@H]2C[C@H]2c2ccccc2)CCN(C(=O)N2CC[C@@H](O)C2)CC1 [Example 60, (3R)-1-{[4-(methoxymethyl)-4-({[(1R,2S)-2-phenylcyclopropyl]amino}methyl)piperidin-1-yl]carbonyl}pyrrolidin-3-ol] has an IC50 of less than 100 nM.
For COCC1(CN[C@@H]2C[C@H]2c2ccccc2)CCN(C(=O)N2CC[C@H](O)C2)CC1 [Example 61, (3S)-1-{[4-(methoxymethyl)-4-({[(1R,2S)-2-phenylcyclopropyl]amino}methyl)piperidin-1-yl]carbonyl}pyrrolidin-3-ol], the IC50 was less than 100 nM.
COCC1(CN[C@@H]2C[C@H]2c2ccccc2)CCN(Cc2ccc(C(=O)O)cc2)CC1 [Example 62, 4-{[4-(methoxymethyl)-4-({[(1R,2S)-2-phenylcyclopropyl]amino}methyl)piperidin-1-yl]methyl}benzoic acid] showed an IC50 of less than 100 nM.
Work on COCC1(CN[C@@H]2C[C@H]2c2ccc(F)cc2)CCN(CC2(C(=O)O)CCC2)CC1 [Example 63, 1-{[4-({[(1R,2S)-2-(4-fluorophenyl)cyclopropyl]amino}methyl)-4-(methoxymethyl)piperidin-1-yl]methyl}cyclobutanecarboxylic acid] yielded an IC50 of less than 100 nM.
For COCC1(CN[C@@H]2C[C@H]2c2ccccc2F)CCN(CC2(C(=O)O)CCC2)CC1 [Example 64, 1-{[4-({[(1R,2S)-2-(2-fluorophenyl)cyclopropyl]amino}methyl)-4-(methoxymethyl)piperidin-1-yl]methyl}cyclobutanecarboxylic acid], the IC50 was less than 100 nM.
With COCC1(CN[C@@H]2C[C@H]2c2ccc(F)c(F)c2)CCN(CC2(C(=O)O)CCC2)CC1 [Example 65, 1-{[4-({[(1R,2S)-2-(3,4-difluorophenyl)cyclopropyl]amino}methyl)-4-(methoxymethyl)piperidin-1-yl]methyl}cyclobutanecarboxylic acid] the IC50 was less than 100 nM.
Compound COCC1(CNC2CC2c2ccccc2OC)CCN(CC2(C(=O)O)CCC2)CC1 (stereo not drawn) [Example 66, 1-{[4-(methoxymethyl)-4-({[2-(2-methoxyphenyl)cyclopropyl]amino}methyl)piperidin-1-yl]methyl}cyclobutanecarboxylic acid] has an IC50 of less than 100 nM.
Compound COCC1(CNC2CC2c2ccc(OC)cc2)CCN(CC2(C(=O)O)CCC2)CC1 (stereo not drawn) [Example 67, 1-{[4-(methoxymethyl)-4-({[2-(4-methoxyphenyl)cyclopropyl]amino}methyl)piperidin-1-yl]methyl}cyclobutanecarboxylic acid] has an IC50 of less than 100 nM.
Compound COCC1(C(C)N[C@@H]2C[C@H]2c2ccccc2)CCN(CC2(C(=O)O)CCC2)CC1 (stereo partly drawn) [Example 68, 1-{[4-(methoxymethyl)-4-(1-{[(1R,2S)-2-phenylcyclopropyl]amino}ethyl)piperidin-1-yl]methyl}cyclobutanecarboxylic acid] has an IC50 of less than 100 nM.
In the case of COc1ccc(CC2(CN[C@@H]3C[C@H]3c3ccccc3)CCN(CC3(C(=O)O)CC3)CC2)cn1 [Example 69, 1-{[4-[(6-methoxypyridin-3-yl)methyl]-4-({[(1R,2S)-2-phenylcyclopropyl]amino}methyl)piperidin-1-yl]methyl}cyclopropanecarboxylic acid], the IC50 is reported as less than 100 nM.
With CCOCC1(CN[C@@H]2C[C@H]2c2ccccc2)CCN(CC2(C(=O)O)CC2)CC1 [Example 70, 1-{[4-(ethoxymethyl)-4-({[(1R,2S)-2-phenylcyclopropyl]amino}methyl)piperidin-1-yl]methyl}cyclopropanecarboxylic acid] the IC50 was less than 100 nM.
CCOCC1(CN[C@@H]2C[C@H]2c2ccccc2)CCN(CC2(C(=O)O)CCC2)CC1 [Example 71, 1-{[4-(ethoxymethyl)-4-({[(1R,2S)-2-phenylcyclopropyl]amino}methyl)piperidin-1-yl]methyl}cyclobutanecarboxylic acid] was tested, and the IC50 was less than 100 nM.
With O=C(O)C1(CN2CCC(CN[C@@H]3C[C@H]3c3ccccc3)(COCc3ccccc3)CC2)CC1 [Example 72, 1-{[4-[(benzyloxy)methyl]-4-({[(1R,2S)-2-phenylcyclopropyl]amino}methyl)piperidin-1-yl]methyl}cyclopropanecarboxylic acid] the IC50 was less than 100 nM.
